# From patent publication US20050267016A1, “CD-10 activated prodrug compounds” (priority 2001, published 2005)
# Where two headings read alike, the source gives them in different places. Marks after values point to notes of the source that are not given here.
# Experiments:
# BALL-1 cells (CD10neg) = experiment: cells
# Protocol: (§1) Suspension cells, BALL-1, Ramos and Namalwa cells were cultured in RPMI media containing 10% heat inactivated fetal calf serum (FCS). On the day of the study, the cells were collected, washed and resuspended at a concentration of 0.5×10^6 cells/ml in RPMI containing 10% FCS. 100 µl of cell suspension was added to 96 well plates. […] Finally 10 μl of a 100 μCi/ml ^3H-thymidine was added per well and the plates were incubated for 24 hours. The plates were harvested using a 96 well Harvester (Packard Instruments) and counted on a Packard Top Count counter. Four parameter logistic curves were fitted to the ^3H-thymidine incorporation as a function of drug molarity using Prism software to determine IC50 values.
# (§2) The effect of two known inhibitors of CD10 on prodrug activity in Ramos, LNCaP and Ball-1 cells was evaluated. The IC50 of Suc-βAla-Ile-Ala-Leu-Dox was determined in the presence of increasing concentration of the CD10 inhibitors, phosphoramidon and thiorphan.
# Ramos cells (CD10pos) = experiment: cells; details: for Ratio Ball-1:Ramos: ratio of IC50
# Protocol: as §1, §2
# Namalwa cells (CD10pos) = experiment: cells; type: cell-based; details: for IC50: 24 hours; for Ratio Ball-1:Namalwa: ratio of IC50
# Protocol: as §1
# LNCaP xenografts = experiment: LNCaP xenograft in SCID mice, Q6DX2, equitoxic comparison (Example 27); type: in vivo, C.B-17.SCID mice
# Protocol: All compounds except Suc-βAla-Leu-Ala-Leu-Dox (three levels) were dosed at two levels with the goal to get a dose response for all compounds.
# Knowing that the LNCaP tumor bearing nude mice have weight loss, we chose very conservative dose levels for each compound estimated to be well-tolerated equitoxic doses based on earlier studies and SD-MTD results. The high dose level for repeat dosing is usually 80% of their SD-MTD, and the low dose level is 80% of the high dose level. Accordingly, groups of ten male CD17.SCID mice, subcutaneously injected with 2.5 million LNCaP cells, were treated intravenously with the compounds at the levels described in Table 22 at six day intervals for a total of two identical doses (Q6DX2).
# LNCaP tumors grew well in SCID mice, but the SCID mice with LNCaP tumor xenografts experienced severe weight loss, as 80% of control mice had more than 25% of weight loss by the end of the study. Nevertheless, the efficacy of different treatments at approximately equitoxic levels were compared based on the time it took for 50% of mice to reach toxic weight loss and the total numbers of mice with toxic weight loss at the end of study.
# [1] = test system: LNCaP prostate carcinoma xenograft; experiment: LNCaP prostate carcinoma xenograft in nude mice, Q7D × 3 (Examples 30, 31); details: for Toxic Endpoint: >20% body weight loss; for Cancer Endpoint: tumors reaching 1000 mg
# Protocol: In this model, 7.5 million LNCaP cells resuspended in 0.1 ml of phosphate buffered saline and 0.1 ml of Matrigel (Becton Dickinson) were injected into the side of male nude mice fed on high fat diet.
# Porcine Kidney CD10 = experiment: Hydrolysis by purified CD10; type: biochemical; details: for % hydrolysis/10 hr: 12.5 μg/mL, 37° C., pH 7.4, product Leu-doxorubicin; for Fraction hydrolyzed relative to standard: standard Suc-βAla-Leu-Ala-Leu-Dox
# Protocol: Reaction products were analyzed by HPLC with fluorescence detection. Rates were essentially linear over the incubation period. The observed product was Leu-doxorubicin.
# [2] = test system: LNCaP (prostate carcinoma) cells
# Protocol: (§3) Adherent cells, LNCaP (prostate carcinoma), HT-29 (colon carcinoma) and PC-3 (prostate carcinoma), were cultured in DMEM media containing 10% heat inactivated fetal calf serum (FCS). On the day of the study the cells were detached from the plate with a trypsin solution. The collected cells were washed and resuspended at a concentration of 0.25×10^6 cells/ml in DMEM containing 10% FCS. 100 μl of cell suspension were added to 96 well plates and the plates were incubated for 3 hours to allow the cells to adhere. […] The plates were then incubated for 24 hours, pulsed with 10 μl of a 100 μCi/ml ^3H-thymidine and incubated for an additional 24 hours (total incubation time 48 hours). The plates were harvested using a 96 well Harvester (Packard Instruments) and counted on a Packard Top Count Counter. Four parameter logistic curves were fitted to the ^3H-thymidine incorporation as a function of drug molarity using Prism software to determine IC50 values.
# as §3, with “carcinoma), PC-3 (prostate” for “carcinoma), HT-29 (colon”, “and 22 RV1” for “and PC-3”, “with 1:0” for “with 10”
# as §2
# normal ICR mice = experiment: Second single dose Maximum Tolerated Dose (SD-MTD) study, 49 days; details: for SD-MTD Molar Ratio (Dox=): relative to doxorubicin on a molar basis
# Protocol: In a second single dose Maximum Tolerated Dose (SD-MTD) study, groups of five normal ICR mice were administered intravenous bolus doses of Suc-βAla-Leu-Ala-Leu-Dox. The mice were observed daily for 49 days and body weights measured twice weekly.
# In a second single dose Maximum Tolerated Dose (SD-MTD) study, groups of five normal ICR mice were administered intravenous bolus doses of Suc-Leu-Ala-Leu-Dox. The mice were observed daily for 49 days and body weights measured twice weekly.
# In a second single dose Maximum Tolerated Dose (SD-MTD) study, groups of five normal ICR mice were administered intravenously bolus doses of Suc-Ile-Ala-Leu-Dox. The mice were observed daily for 49 days and body weights measured twice weekly.
# In a second single dose Maximum Tolerated Dose (SD-MTD) study, groups of five normal ICR mice were administered intravenous bolus doses of Suc-βAla-Ile-Ala-Leu-Dox. The mice were observed daily for 49 days and body weights measured twice weekly.
# [3] = Pharmacokinetic/metabolism study, single IV bolus; details: for Major Plasma Metabolite: mice; for Plasma AUC0-6 hr of AL-Dox or AG-Dox* / Plasma AUC0-6 hr of L-Dox or G-Dox*: single IV bolus approximately 100 μmol/Kg; for Plasma AUC0-6 hr of Dox: single IV bolus approximately 100 μmol/Kg of prodrug
# Protocol: Plasma was obtained from three individual animals in each group at 5 minutes, 1, 2, 4, or 6 hr.
structure (smiles),measurement,setting,value
"COc1cccc2c1C(=O)c1c(O)c3c(c(O)c1C2=O)C[C@@](O)(C(=O)CO)C[C@@H]3O[C@H]1C[C@H](N)[C@H](O)[C@H](C)O1 [Doxorubicin, reference compound]",IC50,"BALL-1 cells (CD10neg); Homo sapiens, BALL-1, 24 h, read-out: IC50 Ball-1",20 nM
same,IC50,"Ramos cells (CD10pos); Homo sapiens, Ramos, 24 h, read-out: IC50 Ramos",10 nM
same,IC50,"Ramos cells (CD10pos); Homo sapiens, Ramos, read-out: IC50 Ramos",10 nM
same,IC50,Namalwa cells (CD10pos),10 nM
same,% Weight Loss at the end of study,LNCaP xenografts; 3 mg/kg Q6DX2,60%
same,Growth Inhibition,LNCaP xenografts; 3 mg/kg Q6DX2,29%
same,Time: 50% Weight Loss,LNCaP xenografts; 3 mg/kg Q6DX2,36 days
same,Growth Inhibition,LNCaP xenografts; 4 mg/kg Q6DX2,29%
same,% Weight Loss at the end of study,"LNCaP xenografts; 4 mg/kg Q6DX2, mice with toxic weight loss",80%
same,Time: 50% Weight Loss,"LNCaP xenografts; 4 mg/kg Q6DX2, time for 50% of mice to reach toxic weight loss",33 days
same,TGI D22,[1]; 4 mg/kg Q7D × 3,52.2 ± 28.8%
same,Tumor Weight (mg) D22,[1]; 4 mg/kg Q7D × 3,323.8 ± 60.8 mg
same,loss of group mean adjusted body weight,"[1]; 4 mg/kg Q7D × 3, Day 22",about 7%
same,Survivor D36,"[1]; 4 mg/kg Q7D × 3, N 8",D36: 3
same,Toxic Endpoint,[1]; 4 mg/kg Q7D × 3,1
same,Cancer Endpoint,[1]; 4 mg/kg Q7D × 3,4
CC[C@H](C)[C@H](NC(=O)CCC(=O)O)C(=O)N[C@@H](C)C(=O)N[C@@H](CC(C)C)C(=O)N[C@H]1C[C@H](O[C@H]2C[C@](O)(C(=O)CO)Cc3c(O)c4c(c(O)c32)C(=O)c2c(OC)cccc2C4=O)O[C@@H](C)[C@H]1O [Suc-Ile-Ala-Leu-Dox],% hydrolysis/10 hr,Porcine Kidney CD10,12.5 % hydrolysis/10 hr
same,Fraction hydrolyzed relative to standard,Porcine Kidney CD10,1.1
same,Ratio PC-3:LNCaP,[2]; ratio of IC50,83
same,IC50,"[2]; read-out: IC50 LNCAP, 48 hours total incubation",1100 nM
same,IC50,"BALL-1 cells (CD10neg); read-out: IC50 Ball-1, 24 hours",26000 nM
same,Ratio Ball-1:Ramos,Ramos cells (CD10pos),4
same,IC50,"Ramos cells (CD10pos); read-out: IC50 Ramos, 24 hours",6430 nM
same,IC50,Namalwa cells (CD10pos),6470 nM
same,Ratio Ball-1:Namalwa,Namalwa cells (CD10pos),4
same,SD-MTD,"normal ICR mice; intravenous bolus, Day 49",94 mg/kg
same,SD-MTD Molar Ratio (Dox=),normal ICR mice,3.5
same,Time: 50% Weight Loss,LNCaP xenografts; 75 mg/kg Q6DX2,26 days
same,Time: 100% Weight Loss,LNCaP xenografts; 75 mg/kg Q6DX2,43 days
same,Time: 50% Weight Loss,LNCaP xenografts; 94 mg/kg Q6DX2,19 days
same,Time: 100% Weight Loss,LNCaP xenografts; 94 mg/kg Q6DX2,36 days
same,Major Plasma Metabolite,[3],Leu-Dox
same,Plasma AUC0-6 hr of AL-Dox or AG-Dox*,[3],1.0 µM·h
same,Plasma AUC0-6 hr of L-Dox or G-Dox*,[3],6.2 µM·h
same,Plasma AUC0-6 hr of Dox,[3],0.9 µM·h
CC[C@H](C)[C@H](NC(=O)CCNC(=O)CCC(=O)O)C(=O)N[C@@H](C)C(=O)N[C@@H](CC(C)C)C(=O)N[C@H]1C[C@H](O[C@H]2C[C@](O)(C(=O)CO)Cc3c(O)c4c(c(O)c32)C(=O)c2c(OC)cccc2C4=O)O[C@@H](C)[C@H]1O [Suc-βAla-Ile-Ala-Leu-Dox],% hydrolysis/10 hr,Porcine Kidney CD10,22.1 % hydrolysis/10 hr
same,Fraction hydrolyzed relative to standard,Porcine Kidney CD10,2.0
same,IC50,[2]; 48 h,150 nM
same,Ratio Suc-β-Ala-Ile-Ala-Leu/Dox,"[2]; LnCap, ratio of IC50",3
same,Ratio PC-3:LNCaP,[2]; ratio of IC50,300
same,IC50,BALL-1 cells (CD10neg); 24 h,50000 nM
same,IC50,Ramos cells (CD10pos); 24 h,420 nM
same,Ratio Ball-1:Ramos,Ramos cells (CD10pos),120
same,Ratio Ball-1:Namalwa,Namalwa cells (CD10pos),172
same,animals euthanized due to weight loss or paralysis,"normal ICR mice; 100 mg/kg, by Day 21, groups of five",three
same,SD-MTD Molar Ratio (Dox=),normal ICR mice,2.6
same,% Weight Loss at the end of study,LNCaP xenografts; 50 mg/kg Q6DX2,80%
same,Time: 50% Weight Loss,LNCaP xenografts; 50 mg/kg Q6DX2,33 days
same,Time: 50% Weight Loss,LNCaP xenografts; 62 mg/kg Q6DX2,12 days
same,Time: 100% Weight Loss,LNCaP xenografts; 62 mg/kg Q6DX2,33 days
same,Tumor Weight (mg) D22,[1]; 40 mg/kg (22 Dox equi) Q7D × 3,D22: 152.1 ± 19.3 mg
same,TGI D22,"[1]; 40 mg/kg (22 Dox equi) Q7D × 3, listed as Suc-bAla-Ile-Ala-Leu-Dox",77.5 ± 27.5%
same,Survivor D36,"[1]; 40 mg/kg Q7D × 3, N 8",D36: 8**
same,Toxic Endpoint,[1]; 40 mg/kg Q7D × 3,0
same,Cancer Endpoint,[1]; 40 mg/kg Q7D × 3,0
same,Major Plasma Metabolite,[3],Leu-Dox
same,Plasma AUC0-6 hr of AL-Dox or AG-Dox*,[3],0.5 µM·h
same,Plasma AUC0-6 hr of L-Dox or G-Dox*,[3],8.5 µM·h
same,Plasma AUC0-6 hr of Dox,[3],1.5 µM·h
COc1cccc2c1C(=O)c1c(O)c3c(c(O)c1C2=O)C[C@@](O)(C(=O)CO)C[C@@H]3O[C@H]1C[C@H](NC(=O)[C@H](CC(C)C)NC(=O)[C@H](C)NC(=O)[C@H](CC(C)C)NC(=O)CCNC(=O)CCC(=O)O)[C@H](O)[C@H](C)O1 [Suc-βAla-Leu-Ala-Leu-Dox],% hydrolysis/10 hr,Porcine Kidney CD10,10.9 % hydrolysis/10 hr
same,Fraction hydrolyzed relative to standard,Porcine Kidney CD10,1.0
same,IC50,[2],510 nM
same,IC50,[2]; 48 h,870 nM
same,shift of IC50,[2]; LNCaP cells treated with 100 nM of phosphoramidon (data not shown),7 fold
same,Ratio PC-3:LNCaP,[2]; ratio of IC50,32
same,IC50,BALL-1 cells (CD10neg); 24 h,17000 nM
same,IC50,Ramos cells (CD10pos),840 nM
same,IC50,Ramos cells (CD10pos); 24 h,6930 nM
same,Ratio Ball-1:Ramos,Ramos cells (CD10pos),2
same,Ratio Ball-1:Namalwa,Namalwa cells (CD10pos),3
same,mortality,"normal ICR mice; 75 mg/kg dose group, by Day 35",40%
same,Time: 50% Weight Loss,LNCaP xenografts; 40 mg/kg Q6DX2,33 days
same,Time: 100% Weight Loss,LNCaP xenografts; 40 mg/kg Q6DX2,54 days
same,Time: 50% Weight Loss,LNCaP xenografts; 50 mg/kg Q6DX2,19 days
same,Time: 100% Weight Loss,LNCaP xenografts; 50 mg/kg Q6DX2,40 days
same,Time: 50% Weight Loss,LNCaP xenografts; 62 mg/kg Q6DX2,15 days
same,Time: 100% Weight Loss,LNCaP xenografts; 62 mg/kg Q6DX2,33 days
same,TGI D22,[1]; 32 mg/kg (18 Dox equi) Q7D × 3,82.8 ± 27.7%
same,Tumor Weight (mg) D22,[1]; 32 mg/kg (18 Dox equi) Q7D × 3,116.3 ± 30.2 mg
same,Survivor D36,"[1]; 32 mg/kg Q7D × 3, N 8",8**
same,Toxic Endpoint,[1]; 32 mg/kg Q7D × 3,0
same,Cancer Endpoint,[1]; 32 mg/kg Q7D × 3,0
same,Toxic Endpoint,[1]; 40 mg/kg Q7D × 3,0
same,Cancer Endpoint,[1]; 40 mg/kg Q7D × 3,0
same,TGI D22,[1]; 50 mg/kg (28 Dox equi) Q7D × 3,78.8 ± 27.5%
same,Tumor Weight (mg) D22,[1]; 50 mg/kg (28 Dox equi) Q7D × 3,143.4 ± 19.0 mg
same,Survivor D36,"[1]; 50 mg/kg Q7D × 3, N 8",8**
same,Toxic Endpoint,[1]; 50 mg/kg Q7D × 3,0
same,Cancer Endpoint,[1]; 50 mg/kg Q7D × 3,0
same,maximal loss of group mean adjusted body weight,"[1]; all three doses (32, 40, 50 mg/kg) Q7D × 3, to Day 36",≤ 3%
same,Major Plasma Metabolite,[3],Ala-Leu-Dox
